Experimental data taken from patent US12310970B2, “Compounds and methods for treating or preventing anterior segment ocular disorders and/or retinal degenerations” (YALE UNIVERSITY, priority 2018, dated 2025).
Structures can show the parent of a compound that is named as a salt.

Assays:
[1] = system: Human iPSC-derived RPE cells; experiment: Mitochondrial respiration (Seahorse XF) after TBHP in iPSC-derived RPE; assay type: cell-based
Human ARPE-19 cells [2] = experiment: Expression of oxidative stress and apoptosis related genes after TBHP; assay type: cell-based; settings: 0.9 μM 24 h preincubation, 300 μM TBHP 24 h
Protocol: FIG. 2 depicts the gene expression pattern of oxidative stress related genes after tert-butyl hydroperoxide-induced cell death. Human ARPE-19 cells were preincubated ciclopirox olamine (0.9 μM) for 24 hours and then exposed to 300 μM tert-butyl hydroperoxide (TBHP) for 24 hours. […] FIG. 3 depicts apoptotic gene expression patterns after oxidative stress-induced cell death in human retinal pigment epithelial (RPE) cells. Human ARPE-19 cells were preincubated with ciclopirox olamine for 24 hours and then exposed to 300 μM tert-butyl hydroperoxide (TBHP) for 24 hours. […] The expression levels of genes related to oxidative stress were identified after exposure to TBHP for 24 hours (FIG. 2).

Human ARPE-19 cells [3] = experiment: Light microscopy of cell morphology after TBHP challenge; assay type: cell-based
Protocol: FIG. 1B depicts cells alone (control). FIG. 1C depicts cells treated with 300 μM TBHP. FIG. 1D depicts cells treated with 0.9 μM of ciclopirox olamine.
FIG. 8B depicts cells alone (control). FIG. 8C depicts cells treated with 300 μM TBHP. FIG. 8D depicts cells treated with 0.6 μM compound 414.
Human ARPE-19 cells morphology was examined using phase contrast on a Zeiss 510 NLO confocal laser scanning microscope with a Plan-Apochromatic 20×0.8 DIC objective.

[4] = system: 661 W photoreceptor-derived cells; experiment: TBHP-induced oxidative stress in 661 W photoreceptor-derived cells; assay type: cell-based, Murine; settings: 24 h preincubation, then 300 μM TBHP 24 h, n=4
Protocol: As shown in FIGS. 20A-20B, compounds 414 and 434 protect 661 W photoreceptor-derived cells from tert-butyl […] oxidative stress. Retinal photoreceptor-derived cell line (661 W) were cultured until confluent in Dulbecco's modified eagle medium (DMEM) with 10% fetal bovine serum (FBS). Murine photoreceptor-derived cells were preincubated with 3 μMciclopirox olamine for 24 hours and then exposed to 300 μM tert-butyl hydroperoxide (TBHP) to induce cell death for 24 hours. […] Bar: standard error, n=4. student t-test was performed for statistical analysis.

C6 cells = experiment: TBHP-induced cell death in C6 cells; assay type: cell-based; settings: 0.9 μM 24 h preincubation, 400 μM TBHP 24 h
Protocol: (§1) FIG. 17 is a graph illustrating that Compound 414 and 434 protect various cell types from oxidative stress-induced cell death. Human ARPE-19, HUVEC, and C6 cells were preincubated with compound 414 and 434 for 24 hours, and then exposed to 400 μM tert-butyl hydroperoxide (TBHP) to induce cell death for 24 hours.
(§2) Human ARPE-19, HUVEC, and C6 cells were preincubated with compound 414 and 434 for 24 hours, and then exposed to 400 μM tert-butyl hydroperoxide (TBHP) to induce cell death for 24 hours.

HUVEC = experiment: TBHP-induced cell death in HUVEC; assay type: cell-based, human; settings: 0.9 μM 24 h preincubation, 400 μM TBHP 24 h
Protocol: as §1, §2

Human ARPE-19 cells [5] = experiment: CellTox Green cytotoxicity assay; assay type: cell-based; settings: 0.9 μM 24 h
Protocol: FIG. 14 is a graph illustrating cytotoxicity level of the compounds in human retinal pigment epithelial (RPE) cells. Human ARPE-19 cells were preincubated with 0.9 μM of compound 414 or 434 for 24 hours and then exposed to 300 μM tert-butyl hydroperoxide (TBHP) for 24 hours. Cell toxicity was measured in human ARPE-19 cells after treatment with TBHP and compounds 414 and 434.
Human ARPE-19 or primary RPE were plated in 96-well plates for 24 hours in DMEM supplemented with FBS and antibiotics. ARPE-19 cells were incubated with compound (Chemical Diversity) or exposed to tert-butyl hydroperoxide (Sigma-Aldrich, St. Louis, MO) for 24 hours. Cell cytotoxicity was measured the following day by CellTox™ Green cytotoxicity assay (Promega, Madison, WI) using a BioTek FLx800™ fluorescence reader (BioTek, Winooski, VT).
After exposure to TBHP for 24 hours and treatment with compound 414 or 434 cytotoxicity levels were measured in human ARPE-19 cells (FIG. 14).

Human ARPE-19 cells [6] = experiment: Cell viability on nitrite-modified extracellular matrix; assay type: cell-based; settings: 0.9 μM, 24 h
Protocol: To prepare the RPE ECM nitrite-treated plates, ARPE-19 cells were grown on 24-well Transwell permeable supports (Corning, Tewksbury, MA, USA) in 12-well plates for 6 to 8 weeks to allow for ECM formation. ARPE-19 cells were removed by the addition of 20 mM ammonium hydroxide buffer for 20 minutes, and the ECM was washed three times with phosphate-buffered saline (PBS). Phosphate-buffered saline was removed from the RPE-derived ECM (RPE-ECM), which was then allowed to dry. The RPE-derived ECM plates were either used immediately after drying, or stored at −20° C. for future use. RPE-derived ECM was processed further to create four experimental plating surfaces (untreated, nitrite modified, nitrite modified followed by washing, or nitrite modified followed by washing and coating with a mixture of ECM ligands).
Nitrite-modified ECM was prepared by adding 100 mM sodium nitrite to the ECM and incubating at 37° C. for 7 days. Plates were then washed at least four times with PBS and further incubated with PBS for 4 hours. Following this, the plates were washed at least two additional times to completely remove the nitrite.
Reactive nitrogen species (RNS) act together with reactive oxygen species (ROS) to damage cells, causing nitrosative stress. […]

Row | SMILES | mitochondrial function, treatment alone ([1]; iPSC-derived RPE treated with ciclopirox olamine alone) | protection from oxidative stress-induced cell death ([1]; iPSC-derived RPE, TBHP 24 h) | expression of genes related to anti-oxidative stress (Human ARPE-19 cells [2]) | expression of genes related to oxidative stress (Human ARPE-19 cells [2]) | gene expression of Bax (Human ARPE-19 cells [2]) | gene expression of caspase 8 (Human ARPE-19 cells [2]) | cell morphology after challenge with TBHP (Human ARPE-19 cells [3]; 0.9 μM ciclopirox olamine and 300 μM TBHP) | cell viability after exposure to TBHP [4] | protection from oxidative stress-induced cell death (C6 cells) | protection from oxidative stress-induced cell death (HUVEC) | cytotoxicity, treatment with compound alone (Human ARPE-19 cells [5]) | cell viability on nitrite-modified ECM (Human ARPE-19 cells [6]) | cell morphology after challenge with TBHP (Human ARPE-19 cells [3]; 0.6 μM compound and 300 μM TBHP)
1 | Cc1cc(C2CCCCC2)n(O)c(=O)c1 [ciclopirox olamine, 6-cyclohexyl-1-hydroxy-4-methyl-2(1H)-pyridone, ethanolamine salt, reference compound] | improved | protects | elevated | reduced | reduced | reduced | helps to preserve a normal morphology |  |  |  |  |  | 
2 | CCc1cccc(C)c1Nc1c(-c2cc(Br)ccc2O)nc2ncccn12 [compound 414] |  |  |  |  |  |  |  | significantly increased cell viability | Protective effects | Protective effects | reduce cytotoxicity | enhances cell viability | helps to preserve a normal morphology
3 | CCc1cccc(C)c1Nc1c(-c2cc(Br)ccc2O)nc2nc(C)cc(C)n12 [compound 434] |  |  |  |  |  |  |  | significantly increased cell viability | Protective effects | Protective effects | reduce cytotoxicity | enhances cell viability | 
